# Measured values from patent publication US9512175B2, “Macrocyclic inhibitors of flaviviridae viruses” (Gilead Sciences, Inc., priority 2012, dated 2016).
# Where two headings read alike, the source gives them in different places.
# Legend:
# [1] = biological target: cyclophilin A (Homo sapiens, UniProt P62937); assay: Cyclophilin A TR-FRET competitive binding assay; settings: IC50 ranges; competition with CsA-Cy5 for His-tagged CypA, two-hour incubation; read-out: TR-FRET
# Method: Cyclophilin A TR-FRET Competitive Binding Assay
# Inhibitor potency was measured using a competitive binding assay with a time-resolved fluorescence resonance energy transfer (TR-FRET) readout. […] An IC50 value was calculated using a four-parameter logistic fit.
# [2] = tested on: HCV replicon (Replicon 1a); assay: anti-HCV activity in Huh-7 cell line harboring a HCV replicon (Replicon 1a); assay type: cell-based; settings: for inhibition at 1 µM: Hepatitis C virus, Huh-7, 72 h
# [3] = read-out: Replicon 1a % inhibition at 1 μM, 1 μM, human hepatoma Huh-7 HCV replicon cells, 3 days, luciferase readout
# [4] = human hepatoma Huh-7 HCV replicon cells, 3 days, luciferase readout
# [5] = read-out: Replicon 1a % inhibition at 1 μM
# Sequence of cyclophilin A (P62937 whole entry, species assumed): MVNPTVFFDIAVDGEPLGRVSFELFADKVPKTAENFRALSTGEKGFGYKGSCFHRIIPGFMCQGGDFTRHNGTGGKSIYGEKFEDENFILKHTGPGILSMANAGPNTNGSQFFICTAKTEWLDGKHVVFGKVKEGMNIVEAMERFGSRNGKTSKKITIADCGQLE
SMILES,IC50 [1],"inhibition at 1 µM [2, 3]","Replicon 1a % inhibition at 1 μM [2, 4]","inhibition at 1 µM [2, 5]"
C[C@@H]1NC(=O)[C@H](CCc2ccccc2)NC(=O)C/C=C/c2cc3cc(ccc3cn2)[C@@H](C)OC(=O)[C@@H]2CCCN(N2)C1=O [Compound 56],101 to 1000 nM,47%,–,–
"COC1CCC=Cc2cccc(c2)C2CCCCN2C(=O)C2CCCN(N2)C(=O)C(C)NC(=O)C(C(C)C)NC(=O)C1C (single isomer, unassigned) [Compound 29]",1000 to 10000 nM,–,28%,–
CC(C)[C@@H]1NC(=O)C/C=C/c2cc3cc(ccc3cn2)[C@@H](C)NC(=O)[C@@H]2CCCN(N2)C(=O)[C@H](C)NC1=O [Compound 11],< 100 nM,6%,–,–
CC(C)[C@@H]1NC(=O)C(C)(C)/C=C/c2ccc3ccc(nc3c2)[C@@H](C)NC(=O)[C@@H]2CCCN(N2)C(=O)[C@H](Cc2ccccc2)NC1=O [Compound 120],< 100 nM,91%,–,–
CC(C)[C@@H]1NC(=O)C(C)(C(C)O)/C=C/c2ccc3ccc(nc3c2)[C@@H](C)OC(=O)[C@@H]2CCCN(N2)C(=O)[C@H](C)NC1=O (stereo partly drawn) [Compound 90],< 100 nM,–,100%,–
CC(C)[C@@H]1NC(=O)[C@H](C)CCCc2cc3cc(ccc3cn2)[C@@H](C)OC(=O)[C@@H]2CCCN(N2)C(=O)[C@H](C)NC1=O [Compound 46],< 100 nM,90%,–,–
COC(=O)N1CCC2(/C=C/c3ccc4ccc(nc4c3)[C@@H](C)OC(=O)[C@@H]3CCCN(N3)C(=O)[C@H](C)NC(=O)[C@H](C(C)C)NC2=O)CC1 [Compound 132],< 100 nM,–,–,100%
CC(C)[C@@H]1NC(=O)C2(/C=C/c3ccc4ccc(nc4c3)[C@@H](C)OC(=O)[C@@H]3CCCN(N3)C(=O)[C@H](C)NC1=O)COC2 [Compound 73],< 100 nM,94%,–,–
CC(C)[C@@H]1NC(=O)C(C)(C)/C=C/c2ccc3c(=O)n(C)c(nc3c2)[C@@H](C)OC(=O)C2CCCN(N2)C(=O)[C@@H](C)NC1=O (stereo partly drawn) [Compound 147],< 100 nM,94%,–,–
CC(C)[C@@H]1NC(=O)CCc2ccc(cc2)-c2cccc(c2)[C@@H](C)OC(=O)[C@@H]2CCCN(N2)C(=O)[C@H](C)NC1=O [Compound 43],< 100 nM,97%,–,–
CC(C)[C@@H]1NC(=O)C(C)(C)/C=C/c2ccc3ccc(cc3c2)[C@@H](C)OC(=O)[C@@H]2CCCN(N2)C(=O)[C@H](C)NC1=O [Compound 142],< 100 nM,99%,–,–
CC(C)[C@@H]1NC(=O)C(C)(C)/C=C/c2ccc3c(Cl)cc(nc3c2)[C@@H](C)OC(=O)[C@@H]2CCCN(N2)C(=O)[C@H](C)NC1=O [Compound 138],< 100 nM,100%,–,–
C[C@@H]1NC(=O)[C@H](C2CCCCC2)NC(=O)C/C=C/c2cc3cc(ccc3cn2)[C@@H](C)OC(=O)[C@@H]2CCCN(N2)C1=O [Compound 53],101 to 1000 nM,89%,–,–
CO[C@@H]1CC/C=C/c2cccc(c2)C2CCCCN2C(=O)[C@@H]2CCCN(N2)C(=O)[C@H](C)NC(=O)[C@H](C(C)C)NC(=O)[C@@H]1C (stereo partly drawn) [Compound 28],101 to 1000 nM,56%,–,–
CC(C)[C@@H]1NC(=O)[C@@H](C)Oc2ccc(cc2)-c2cccc(c2)[C@@H](C)OC(=O)[C@@H]2CCCN(N2)C(=O)[C@H](C)NC1=O [Compound 40],< 100 nM,96%,–,–
CC(C)[C@@H]1NC(=O)C2(/C=C/c3ccc4ccc(nc4c3)[C@@H](C)OC(=O)[C@@H]3CCCN(N3)C(=O)[C@H](C)NC1=O)CCN(CC#N)CC2 [Compound 131],< 100 nM,–,–,77%
C[C@@H]1NC(=O)[C@H](Cc2cccnc2)NC(=O)C(C)(C)/C=C/c2cc3cc(ccc3cn2)[C@@H](C)OC(=O)[C@@H]2CCCN(N2)C1=O [Compound 55],101 to 1000 nM,76%,–,–
CC(C)[C@@H]1NC(=O)[C@@H]([C@@H](C)O)/C=C/c2ccc3ccc(nc3c2)[C@@H](C)OC(=O)[C@@H]2CCCN(N2)C(=O)[C@H](C)NC1=O [Compound 83],< 100 nM,99%,–,–

SMILES,IC50 [1],"inhibition at 1 µM [2, 3]","Replicon 1a % inhibition at 1 μM [2, 4]","inhibition at 1 µM [2, 5]"
CC(C)[C@@H]1NC(=O)C(C)(C)/C=C/c2ccc3c(=O)[nH]c(nc3c2)[C@@H](C)OC(=O)C2CCCN(N2)C(=O)[C@@H](C)NC1=O (stereo partly drawn) [Compound 146],< 100 nM,24%,–,–
CO[C@@H](C)[C@H]1/C=C/c2ccc3ccc(nc3c2)[C@@H](C)OC(=O)[C@@H]2CCCN(N2)C(=O)[C@@H](C)NC(=O)[C@H](C(C)C)NC1=O [Compound 149],< 100 nM,99%,–,–
CC(C)[C@@H]1NC(=O)[C@]2(/C=C/c3ccc4ccc(nc4c3)[C@@H](C)OC(=O)[C@@H]3CCCN(N3)C(=O)[C@H](C)NC1=O)CC[C@@](C)(O)CC2 [Compound 173],< 100 nM,99%,–,–
CC(C)[C@@H]1NC(=O)C/C=C/c2ccc3ncc(nc3c2)[C@@H](C)OC(=O)[C@@H]2CCCN(N2)C(=O)[C@H](C)NC1=O [Compound 7],< 100 nM,94%,–,–
C=CC[C@@H]1NC(=O)C(C)(C)/C=C/c2cc3cc(ccc3cn2)[C@@H](C)OC(=O)[C@@H]2CCCN(N2)C(=O)[C@H](C)NC1=O [Compound 52],< 100 nM,98%,–,–
CC(C)[C@@H]1NC(=O)C(C)(C)/C=C/c2ccc3ccc(nc3c2)[C@@H](C)OC(=O)[C@@H]2CCCN(N2)C(=O)[C@H](CC(=O)OC(C)(C)C)NC1=O [Compound 92],< 100 nM,100%,–,–
CC(C)[C@@H]1NC(=O)C(C)(C)/C=C/c2ccc3ccc(nc3c2)[C@@H](C)OC(=O)[C@@H]2CCCN(N2)C(=O)[C@H]([C@@H](C)O)NC1=O [Compound 91],< 100 nM,99%,–,–
"CC(C)[C@@H]1NC(=O)[C@H](C)[C@H](OCC(F)(F)F)CC/C=C/c2cccc(c2)[C@@H](C)NC(=O)[C@@H]2CCCN(N2)C(=O)[C@H](C)NC1=O [Compound 2, (E)-(2R,5S,11 S,14S,17R,18R)-14-Isopropyl-2,11,17-trimethyl-18-(2,2,2-trifluoro-ethoxy)-3,9,12,15,28-pentaaza-tricyclo[21.3.1.1*5,9*]octacosa-1(26),21,23(27),24-tetraene-4,10,13,16-tetraone]",101 to 1000 nM,63%,–,–
CC(C)OC(=O)OCO[C@@H](C)[C@H]1/C=C/c2ccc3ccc(nc3c2)[C@@H](C)OC(=O)[C@@H]2CCCN(N2)C(=O)[C@H](C)NC(=O)[C@H](C(C)C)NC1=O [Compound 168],< 100 nM,100%,–,–
CC(C)[C@@H]1NC(=O)C(C)(C)/C=C/c2ccc3cnc(cc3c2)[C@@H](C)OC(=O)[C@@H]2CCCN(N2)C(=O)[C@H](C)NC1=O [Compound 17],< 100 nM,100%,–,–
CC(C)[C@@H]1NC(=O)COc2ccc(cc2)-c2cccc(n2)[C@@H](C)OC(=O)[C@@H]2CCCN(N2)C(=O)[C@H](C)NC1=O [Compound 41],< 100 nM,96%,–,–
Cc1cc2ccc3cc2nc1[C@@H](C)NC(=O)[C@@H]1CCCN(N1)C(=O)[C@H](C)NC(=O)[C@H](C(C)C)NC(=O)C(C)(C)/C=C/3 [Compound 175],< 100 nM,85%,–,–
CC(C)[C@@H]1NC(=O)CCn2cc(cn2)-c2cccc(c2)[C@@H](C)OC(=O)[C@@H]2CCCN(N2)C(=O)[C@H](C)NC1=O [Compound 42],101 to 1000 nM,16%,–,–
CC[C@H](C)[C@@H]1NC(=O)C(C)(C)/C=C/c2ccc3ccc(nc3c2)[C@@H](C)OC(=O)[C@@H]2CCCN(N2)C(=O)[C@H](C)NC1=O [Compound 125],< 100 nM,100%,–,–
CC(C)[C@@H]1NC(=O)C(C)(C)/C=C/c2ccc3ccc(nc3c2)[C@@H](C)OC(=O)[C@@H]2CCCN(N2)C(=O)[C@H](Cc2cscn2)NC1=O [Compound 110],< 100 nM,100%,–,–
CC(C)[C@@H]1NC(=O)[C@H](C)CCCCOc2ccc(F)c(c2)[C@@H](C)OC(=O)[C@@H]2CCCN(N2)C(=O)[C@H](C)NC1=O [Compound 36],< 100 nM,73%,–,–
C[C@@H]1NC(=O)[C@H](CCn2cc(CO)nn2)NC(=O)C(C)(C)/C=C/c2cc3cc(ccc3cn2)[C@@H](C)OC(=O)[C@@H]2CCCN(N2)C1=O [Compound 72],101 to 1000 nM,–,–,0%
"CC(C)[C@@H]1NC(=O)[C@H](C)[C@H](O)CC/C=C/c2cccc(c2)[C@@H](C)NC(=O)[C@@H]2CCCN(N2)C(=O)[C@H](C)NC1=O [Compound 1, (E)-(2R,5S,11S,14S,17R,18R)-18-Hydroxy-14-isopropyl-2,11,17-trimethyl-3,9,12,15,28-pentaaza-tricyclo[21.3.1.1*5,9*]octacosa-1(26),21,23(27),24-tetraene-4,10,13,16-tetraone]",< 100 nM,32%,–,–
